# How the values were obtained:
# human Nav1.7 = human Nav1.7 (Homo sapiens (Human), UniProt Q15858); assay: Human Nav1.7 inhibitory activity evaluation (automated patch clamp QPatch16X, HEK293A cells stably expressing human Nav1.7 and human Navβ1); type: cell-based; conditions: human Nav1.7, automated patch clamp
# Summary of the method: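 IC50 calculated from the concentration-response of inward current evoked by the second −10 mV, 50 ms depolarisation, which follows a 15 s conditioning step at roughly 30-40% inactivation and a 100 ms −120 mV interval. Cells: HEK293A expressing human Nav1.7/Navβ1, automated patch clamp, room temperature, 0.1% DMSO final.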
# human Nav1.5 = human Nav1.5 (Homo sapiens (Human), UniProt Q14524); assay: Human Nav1.5 inhibitory activity evaluation (automated patch clamp QPatch16X, HEK293 cells stably expressing human Nav1.5); type: cell-based; conditions: human Nav1.5, automated patch clamp
# Protocol: Test Example 2: Human Nav1.5 Inhibitory Activity Evaluation
# A cell line in which human Nav1.5 was stably expressed in HEK293 cells was used. DMEM supplemeted with 15% fetal bovine serum, 500 μg/ml geneticin, 100 units/ml penicillin, 100 μg/ml streptomycin, 20 mM HEPES was used as culture medium under the conditions of 37° C. and 5% CO2 in T175 flasks to carry out culturing. When 60-80% confluence was reached, a cell suspension of about 0.5-5.0×10^6 cells/mL was prepared. The amount of current through human Nav1.5 was recorded using a fully automatic patch clamp device QPatch16X at room temperature. As the extracellular solution, 145 mM NaCl, 4 mM KCl, 1 mM MgCl2, 2 mM CaCl2, 10 mM Glucose, and 10 mM HEPES at pH 7.4 was used. As the intracellular solution, 135 mM CsF, ⅕ mM EGTA/CsOH, 10 mM HEPES, and 10 mM NaCl at pH 7.3 was used. The test compounds were dissolved in DMSO and diluted with the extracellular solution to attend the DMSO concentration of 0.1% at the time of assay.
# The current response was obtained at a sampling frequency of 25 kHz, and noise was removed with a 3 kHz low-pass filter. The holding potential was −80 mV. Correction of the leakage current was carried out by applying a step pulse of −100 mV before the test pulse. In order to investigate human Nav1.5 inhibitory effect of the test compound, test pulses imitating the action potential of cardiomyocytes were continuously given 20 times. The test pulses were given before and after the test compound addition.
# The inhibitory activity of the test compound was determined based on the amount of inward current generated by the 20th depolarization pulse, and the 50% inhibitory concentration (IC50) was calculated from the concentration-response curve.
# Chain of human Nav1.7 (Q15858 whole entry): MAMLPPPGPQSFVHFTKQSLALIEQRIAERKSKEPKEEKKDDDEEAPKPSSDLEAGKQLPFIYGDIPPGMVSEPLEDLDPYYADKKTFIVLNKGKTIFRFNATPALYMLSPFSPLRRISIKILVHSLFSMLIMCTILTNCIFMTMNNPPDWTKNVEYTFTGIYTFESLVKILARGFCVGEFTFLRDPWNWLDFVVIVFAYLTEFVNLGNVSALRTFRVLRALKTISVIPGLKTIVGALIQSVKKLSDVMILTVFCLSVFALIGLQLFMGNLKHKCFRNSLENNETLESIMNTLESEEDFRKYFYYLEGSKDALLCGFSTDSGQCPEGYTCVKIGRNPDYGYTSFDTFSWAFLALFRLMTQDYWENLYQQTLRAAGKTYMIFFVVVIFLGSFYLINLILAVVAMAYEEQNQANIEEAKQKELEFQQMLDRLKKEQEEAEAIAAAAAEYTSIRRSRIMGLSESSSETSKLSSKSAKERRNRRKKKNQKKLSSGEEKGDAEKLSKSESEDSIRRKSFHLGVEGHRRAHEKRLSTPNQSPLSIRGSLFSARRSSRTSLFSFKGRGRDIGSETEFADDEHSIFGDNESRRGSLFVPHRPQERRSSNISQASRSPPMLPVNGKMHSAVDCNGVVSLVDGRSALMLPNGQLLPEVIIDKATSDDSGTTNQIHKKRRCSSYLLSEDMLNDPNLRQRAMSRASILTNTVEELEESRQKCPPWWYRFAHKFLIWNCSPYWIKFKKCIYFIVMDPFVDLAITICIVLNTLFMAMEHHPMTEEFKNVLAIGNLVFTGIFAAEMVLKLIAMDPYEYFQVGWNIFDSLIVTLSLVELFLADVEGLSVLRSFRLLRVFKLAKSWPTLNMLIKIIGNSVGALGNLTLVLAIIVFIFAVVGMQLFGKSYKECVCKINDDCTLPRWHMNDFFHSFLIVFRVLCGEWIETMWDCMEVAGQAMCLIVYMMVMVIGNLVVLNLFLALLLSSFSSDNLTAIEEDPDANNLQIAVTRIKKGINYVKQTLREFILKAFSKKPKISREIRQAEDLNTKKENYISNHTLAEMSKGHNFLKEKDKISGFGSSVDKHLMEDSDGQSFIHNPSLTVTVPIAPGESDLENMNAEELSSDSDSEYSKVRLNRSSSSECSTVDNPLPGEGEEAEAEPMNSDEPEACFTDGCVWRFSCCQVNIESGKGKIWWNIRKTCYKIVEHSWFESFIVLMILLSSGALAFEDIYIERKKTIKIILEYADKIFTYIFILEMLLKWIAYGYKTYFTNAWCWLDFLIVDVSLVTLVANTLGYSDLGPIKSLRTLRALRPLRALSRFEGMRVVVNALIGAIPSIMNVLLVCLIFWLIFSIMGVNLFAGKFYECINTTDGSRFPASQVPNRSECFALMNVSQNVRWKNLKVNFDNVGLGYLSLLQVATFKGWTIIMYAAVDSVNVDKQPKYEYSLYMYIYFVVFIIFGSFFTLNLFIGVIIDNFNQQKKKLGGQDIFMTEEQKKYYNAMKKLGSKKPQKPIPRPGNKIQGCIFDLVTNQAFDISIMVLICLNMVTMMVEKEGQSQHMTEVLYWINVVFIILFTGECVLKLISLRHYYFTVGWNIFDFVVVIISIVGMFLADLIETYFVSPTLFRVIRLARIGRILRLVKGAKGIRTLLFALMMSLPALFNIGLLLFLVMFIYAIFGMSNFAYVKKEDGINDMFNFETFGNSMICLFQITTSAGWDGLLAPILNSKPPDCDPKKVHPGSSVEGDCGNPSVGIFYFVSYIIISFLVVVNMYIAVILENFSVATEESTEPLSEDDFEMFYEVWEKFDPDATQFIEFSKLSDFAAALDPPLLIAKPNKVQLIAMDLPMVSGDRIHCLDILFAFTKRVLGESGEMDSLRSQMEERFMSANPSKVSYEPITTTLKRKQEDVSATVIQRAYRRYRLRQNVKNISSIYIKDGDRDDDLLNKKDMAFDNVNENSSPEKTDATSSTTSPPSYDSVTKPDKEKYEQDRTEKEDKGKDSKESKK
# Chain of human Nav1.7 (Q07699 19-218 partner): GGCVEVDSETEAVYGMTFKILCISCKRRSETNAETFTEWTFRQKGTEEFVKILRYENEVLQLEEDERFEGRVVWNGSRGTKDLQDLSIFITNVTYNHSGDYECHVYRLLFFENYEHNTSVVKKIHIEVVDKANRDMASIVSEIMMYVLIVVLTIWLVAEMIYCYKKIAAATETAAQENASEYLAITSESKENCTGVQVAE
# Chain of human Nav1.5 (Q14524 whole entry): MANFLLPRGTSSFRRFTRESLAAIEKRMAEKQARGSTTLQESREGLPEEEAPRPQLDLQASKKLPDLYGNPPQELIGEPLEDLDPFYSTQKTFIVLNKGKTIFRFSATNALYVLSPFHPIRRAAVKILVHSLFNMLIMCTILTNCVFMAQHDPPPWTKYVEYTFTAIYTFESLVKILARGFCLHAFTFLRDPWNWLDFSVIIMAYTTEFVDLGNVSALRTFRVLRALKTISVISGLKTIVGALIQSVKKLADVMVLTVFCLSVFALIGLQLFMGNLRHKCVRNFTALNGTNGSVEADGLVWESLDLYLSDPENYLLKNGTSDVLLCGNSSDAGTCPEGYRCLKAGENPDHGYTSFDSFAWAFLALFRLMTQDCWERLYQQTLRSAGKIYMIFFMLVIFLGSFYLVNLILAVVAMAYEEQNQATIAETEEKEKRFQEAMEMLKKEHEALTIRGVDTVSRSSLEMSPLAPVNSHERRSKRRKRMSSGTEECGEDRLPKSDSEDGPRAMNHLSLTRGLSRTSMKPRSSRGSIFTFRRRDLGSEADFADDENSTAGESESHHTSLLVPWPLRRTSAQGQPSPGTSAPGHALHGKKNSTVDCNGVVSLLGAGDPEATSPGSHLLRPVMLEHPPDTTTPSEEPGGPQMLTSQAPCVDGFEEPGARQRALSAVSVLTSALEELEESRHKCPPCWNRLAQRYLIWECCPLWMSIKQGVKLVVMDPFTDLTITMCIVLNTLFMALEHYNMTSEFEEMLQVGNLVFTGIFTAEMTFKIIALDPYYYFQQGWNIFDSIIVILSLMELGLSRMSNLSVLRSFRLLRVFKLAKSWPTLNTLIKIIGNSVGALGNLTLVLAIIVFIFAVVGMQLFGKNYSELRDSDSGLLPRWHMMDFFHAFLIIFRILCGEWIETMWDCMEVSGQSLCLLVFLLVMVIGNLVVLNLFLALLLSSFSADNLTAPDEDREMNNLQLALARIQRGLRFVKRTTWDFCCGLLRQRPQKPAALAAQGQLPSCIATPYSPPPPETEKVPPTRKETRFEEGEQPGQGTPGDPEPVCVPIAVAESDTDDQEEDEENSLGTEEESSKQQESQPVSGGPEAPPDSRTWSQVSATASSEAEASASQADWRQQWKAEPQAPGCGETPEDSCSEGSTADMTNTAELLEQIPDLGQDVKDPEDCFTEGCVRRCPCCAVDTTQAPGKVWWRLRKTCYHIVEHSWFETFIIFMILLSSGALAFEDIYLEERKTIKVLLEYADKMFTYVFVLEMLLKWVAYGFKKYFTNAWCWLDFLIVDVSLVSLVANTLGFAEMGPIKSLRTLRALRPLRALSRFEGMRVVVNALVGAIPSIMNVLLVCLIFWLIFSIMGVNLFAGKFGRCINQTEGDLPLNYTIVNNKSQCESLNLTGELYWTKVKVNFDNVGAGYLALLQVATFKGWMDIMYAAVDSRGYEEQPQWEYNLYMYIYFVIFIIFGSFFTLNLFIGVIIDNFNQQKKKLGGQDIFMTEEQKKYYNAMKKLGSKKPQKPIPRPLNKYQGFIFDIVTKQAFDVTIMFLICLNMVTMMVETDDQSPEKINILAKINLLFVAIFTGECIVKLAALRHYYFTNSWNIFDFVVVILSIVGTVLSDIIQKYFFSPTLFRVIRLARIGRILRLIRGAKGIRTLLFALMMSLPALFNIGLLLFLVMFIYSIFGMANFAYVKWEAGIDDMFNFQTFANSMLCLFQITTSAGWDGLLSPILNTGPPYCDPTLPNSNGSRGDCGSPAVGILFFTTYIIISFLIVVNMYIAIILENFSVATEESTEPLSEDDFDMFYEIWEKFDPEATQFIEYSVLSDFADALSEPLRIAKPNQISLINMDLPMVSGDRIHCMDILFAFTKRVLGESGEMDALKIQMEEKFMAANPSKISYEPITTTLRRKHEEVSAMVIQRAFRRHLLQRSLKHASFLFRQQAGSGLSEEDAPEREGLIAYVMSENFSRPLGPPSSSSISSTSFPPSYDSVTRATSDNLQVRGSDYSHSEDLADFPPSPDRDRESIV
smiles,measurement,setting,value
"N#Cc1ccc2c(c1)C[C@@H](NC(=O)c1cc3n(n1)CCC(CCOC(F)F)O3)CO2 (single isomer, unassigned) [146 (isomer B)]",IC50,human Nav1.7,< 1000 nM
same,IC50,human Nav1.5,≥ 3000 nM
"O=C(N[C@H]1COc2ccc(Cl)cc2C1)c1cc2n(n1)CCC(CNCC(F)(F)F)O2 (single isomer, unassigned) [152 (isomer A)]",IC50,human Nav1.7,< 1000 nM
same,IC50,human Nav1.5,≥ 3000 nM
"O=C(N[C@H]1COc2ccc(Cl)cc2C1)c1cc2n(n1)CCC(CN1CCC(F)(F)C1)O2 (single isomer, unassigned) [153 (isomer A)]",IC50,human Nav1.7,< 1000 nM
same,IC50,human Nav1.5,1000 to 3000 nM
"N#Cc1ccc2c(c1)C[C@@H](NC(=O)c1cc3n(n1)CCC(CSC(F)(F)F)O3)CO2 (single isomer, unassigned) [156 (isomer A)]",IC50,human Nav1.7,< 1000 nM
same,IC50,human Nav1.5,≥ 3000 nM
"O=C(N[C@H]1COc2ccc(Cl)cc2C1)c1cc2n(n1)CCC(C(F)F)O2 (single isomer, unassigned) [158 (isomer A)]",IC50,human Nav1.7,< 1000 nM
same,IC50,human Nav1.5,≥ 3000 nM
"O=C(N[C@H]1COc2ccc(COCC(F)(F)F)cc2C1)c1cc2n(n1)CCC(C(F)F)O2 (single isomer, unassigned) [163 (isomer A)]",IC50,human Nav1.7,< 1000 nM
same,IC50,human Nav1.5,1000 to 3000 nM
"O=C(N[C@H]1COc2ccc(Cl)cc2C1)c1cc2n(n1)CCC(C(F)(F)F)O2 (single isomer, unassigned) [170 (isomer A)]",IC50,human Nav1.7,< 1000 nM
same,IC50,human Nav1.5,1000 to 3000 nM
"O=C(N[C@H]1COc2ccc(Cl)cc2C1)c1cc2n(n1)CCC(C(F)(F)F)O2 (single isomer, unassigned) [170 (isomer B)]",IC50,human Nav1.7,< 1000 nM
same,IC50,human Nav1.5,< 1000 nM
"O=C(N[C@H]1COc2ccc(CC(F)F)cc2C1)c1cc2n(n1)CCC(C(F)(F)F)O2 (single isomer, unassigned) [173 (isomer A)]",IC50,human Nav1.7,< 1000 nM
same,IC50,human Nav1.5,≥ 3000 nM
"O=C(N[C@H]1COc2ccc(COCC(F)(F)F)cc2C1)c1cc2n(n1)CC(C(F)(F)F)O2 (single isomer, unassigned) [184 (isomer A)]",IC50,human Nav1.7,< 1000 nM
same,IC50,human Nav1.5,1000 to 3000 nM
"O=C(N[C@H]1COc2ccc(COCC(F)(F)F)cc2C1)c1cc2n(n1)CC(COCC1CC1)O2 (single isomer, unassigned) [186 (isomer A)]",IC50,human Nav1.7,< 10000 nM
same,IC50,human Nav1.5,≥ 3000 nM
"O=C(N[C@H]1COc2ccc(COCC(F)(F)F)cc2C1)c1cc2n(n1)CC(COCC1CC1)O2 (single isomer, unassigned) [186 (isomer B)]",IC50,human Nav1.7,< 1000 nM
same,IC50,human Nav1.5,1000 to 3000 nM
"O=C(N[C@H]1COc2ccc(COCC(F)(F)F)cc2C1)c1cc2n(n1)CC(COCC(F)(F)F)O2 (single isomer, unassigned) [188 (isomer A)]",IC50,human Nav1.7,< 1000 nM
same,IC50,human Nav1.5,< 1000 nM
"O=C(N[C@H]1COc2ccc(COCC(F)(F)F)cc2C1)c1cc2n(n1)CC(COCC(F)(F)F)O2 (single isomer, unassigned) [188 (isomer B)]",IC50,human Nav1.7,< 1000 nM
same,IC50,human Nav1.5,≥ 3000 nM
"O=C(N[C@H]1COc2ccc(CCOC(F)F)cc2C1)c1cc2n(n1)CC(COCC(F)(F)F)O2 (single isomer, unassigned) [190 (isomer A)]",IC50,human Nav1.7,< 1000 nM
same,IC50,human Nav1.5,≥ 3000 nM
"Cc1cnc(-c2ccc3c(c2)C[C@@H](NC(=O)c2cc4n(n2)CC(COCC(F)(F)F)O4)CO3)cn1 (single isomer, unassigned) [194 (isomer B)]",IC50,human Nav1.7,< 1000 nM
same,IC50,human Nav1.5,≥ 3000 nM
"O=C(N[C@H]1COc2ccc(COCC(F)(F)F)cc2C1)c1cc2n(n1)CC(COC(F)(F)F)O2 (single isomer, unassigned) [196 (isomer A)]",IC50,human Nav1.7,< 1000 nM
same,IC50,human Nav1.5,1000 to 3000 nM
"O=C(N[C@H]1COc2ccc(COCC(F)(F)F)cc2C1)c1cc2n(n1)CC(COC(F)(F)F)O2 (single isomer, unassigned) [196 (isomer B)]",IC50,human Nav1.7,< 1000 nM
same,IC50,human Nav1.5,≥ 3000 nM
"O=C(N[C@H]1COc2ccc(CC(F)F)cc2C1)c1cc2n(n1)CC(COC(F)(F)F)O2 (single isomer, unassigned) [198 (isomer B)]",IC50,human Nav1.7,< 1000 nM
same,IC50,human Nav1.5,≥ 3000 nM
"N#Cc1ccc2c(c1)C[C@@H](NC(=O)c1cc3n(n1)CC(CSCC(F)(F)F)O3)CO2 (single isomer, unassigned) [200 (isomer A)]",IC50,human Nav1.7,< 10000 nM
same,IC50,human Nav1.5,≥ 3000 nM
"N#Cc1ccc2c(c1)C[C@@H](NC(=O)c1cc3n(n1)CC(CSCC(F)(F)F)O3)CO2 (single isomer, unassigned) [200 (isomer B)]",IC50,human Nav1.7,< 1000 nM
same,IC50,human Nav1.5,≥ 3000 nM
"N#Cc1ccc2c(c1)C[C@@H](NC(=O)c1cc3n(n1)CC(CCOCC1CC1)O3)CO2 (single isomer, unassigned) [202 (isomer A)]",IC50,human Nav1.7,< 1000 nM
same,IC50,human Nav1.5,≥ 3000 nM
"N#Cc1ccc2c(c1)C[C@@H](NC(=O)c1cc3n(n1)CC(CCOCC1CC1)O3)CO2 (single isomer, unassigned) [202 (isomer B)]",IC50,human Nav1.7,< 1000 nM
same,IC50,human Nav1.5,< 1000 nM
"COc1ncc(-c2ccc3c(c2)C[C@@H](NC(=O)c2cc4n(n2)CC(CCOCC2CC2)O4)CO3)cn1 (single isomer, unassigned) [204 (isomer B)]",IC50,human Nav1.7,< 1000 nM
same,IC50,human Nav1.5,1000 to 3000 nM
"O=C(N[C@H]1COc2ccc(-c3ccccn3)cc2C1)c1cc2n(n1)CC(CCOCC(F)(F)F)O2 (single isomer, unassigned) [207 (isomer B)]",IC50,human Nav1.7,< 1000 nM
same,IC50,human Nav1.5,1000 to 3000 nM
"N#Cc1ccc2c(c1)C[C@@H](NC(=O)c1cc3n(n1)CC(CCOC(F)(F)F)O3)CO2 (single isomer, unassigned) [209 (isomer B)]",IC50,human Nav1.7,< 1000 nM
same,IC50,human Nav1.5,< 1000 nM
"Cn1ccc(-c2ccc3c(c2)C[C@@H](NC(=O)c2cc4n(n2)CC(CCOC(F)(F)F)O4)CO3)n1 (single isomer, unassigned) [213 (isomer A)]",IC50,human Nav1.7,< 1000 nM
same,IC50,human Nav1.5,≥ 3000 nM
"O=C(N[C@H]1COc2ccc(COCC(F)(F)F)cc2C1)c1cc2n(n1)CC(CCOC(F)F)O2 (single isomer, unassigned) [215 (isomer A)]",IC50,human Nav1.7,< 1000 nM
same,IC50,human Nav1.5,1000 to 3000 nM
"O=C(N[C@H]1COc2ccc(CCOC(F)F)cc2C1)c1cc2n(n1)CC(CCOC(F)F)O2 (single isomer, unassigned) [217 (isomer A)]",IC50,human Nav1.7,< 1000 nM
same,IC50,human Nav1.5,1000 to 3000 nM
"O=C(N[C@H]1COc2ccc(CCOC(F)F)cc2C1)c1cc2n(n1)CC(CCOC(F)F)O2 (single isomer, unassigned) [217 (isomer B)]",IC50,human Nav1.7,< 1000 nM
same,IC50,human Nav1.5,< 1000 nM
"O=C(N[C@H]1COc2ccc(CC(F)F)cc2C1)c1cc2n(n1)CC(CCOC(F)F)O2 (single isomer, unassigned) [219 (isomer A)]",IC50,human Nav1.7,< 10000 nM
same,IC50,human Nav1.5,≥ 3000 nM
"O=C(N[C@H]1COc2ccc(CC(F)F)cc2C1)c1cc2n(n1)CC(CCOC(F)F)O2 (single isomer, unassigned) [219 (isomer B)]",IC50,human Nav1.7,< 1000 nM
same,IC50,human Nav1.5,1000 to 3000 nM
"Cn1cc(-c2ccc3c(c2)C[C@@H](NC(=O)c2cc4n(n2)CC(CCOC(F)F)O4)CO3)cn1 (single isomer, unassigned) [221 (isomer A)]",IC50,human Nav1.7,< 10000 nM
same,IC50,human Nav1.5,≥ 3000 nM
"Cn1cc(-c2ccc3c(c2)C[C@@H](NC(=O)c2cc4n(n2)CC(CCOC(F)F)O4)CO3)cn1 (single isomer, unassigned) [221 (isomer B)]",IC50,human Nav1.7,< 1000 nM
same,IC50,human Nav1.5,1000 to 3000 nM
"O=C(N[C@H]1COc2ccc(-c3cnccn3)cc2C1)c1cc2n(n1)CC(CCOC(F)F)O2 (single isomer, unassigned) [223 (isomer B)]",IC50,human Nav1.7,< 1000 nM
same,IC50,human Nav1.5,1000 to 3000 nM
"O=C(N[C@H]1COc2ccc(COCC(F)(F)F)cc2C1)c1cc2n(n1)CC(CCOCC(F)F)O2 (single isomer, unassigned) [224 (isomer A)]",IC50,human Nav1.7,< 1000 nM
same,IC50,human Nav1.5,≥ 3000 nM
"O=C(N[C@H]1COc2ccc(COCC(F)(F)F)cc2C1)c1cc2n(n1)CC(CCOCC(F)F)O2 (single isomer, unassigned) [224 (isomer B)]",IC50,human Nav1.7,< 1000 nM
same,IC50,human Nav1.5,1000 to 3000 nM
"O=C(N[C@H]1COc2ccc(Cl)cc2C1)c1cc2n(n1)CC(CCNCC(F)(F)F)O2 (single isomer, unassigned) [226 (isomer A)]",IC50,human Nav1.7,< 1000 nM
same,IC50,human Nav1.5,≥ 3000 nM
"O=C(N[C@H]1COc2ccc(Cl)cc2C1)c1cc2n(n1)CC(CCNCC(F)(F)F)O2 (single isomer, unassigned) [226 (isomer B)]",IC50,human Nav1.7,< 1000 nM
same,IC50,human Nav1.5,1000 to 3000 nM
"Cc1ccc2c(c1)C[C@@H](NC(=O)c1cc3n(n1)CC(CCNCC(F)(F)F)O3)CO2 (single isomer, unassigned) [228 (isomer A)]",IC50,human Nav1.7,< 1000 nM
same,IC50,human Nav1.5,≥ 3000 nM
"O=C(N[C@H]1COc2ccc(C(F)(F)F)cc2C1)c1cc2n(n1)CC(CCNCC(F)(F)F)O2 (single isomer, unassigned) [230 (isomer A)]",IC50,human Nav1.7,< 1000 nM
same,IC50,human Nav1.5,≥ 3000 nM
"O=C(N[C@H]1COc2ccc(COCC(F)(F)F)cc2C1)c1cc2n(n1)CC(CCNCC(F)(F)F)O2 (single isomer, unassigned) [232 (isomer A)]",IC50,human Nav1.7,< 1000 nM
same,IC50,human Nav1.5,1000 to 3000 nM
